# Data: article PMC6152192, “Novel Methylselenoesters as Antiproliferative Agents” (Molecules : A Journal of Synthetic Chemistry and Natural …, 2017)
# How the values were obtained:
# Assay type in all cases: cell-based
# MCF7 cells [1] = experiment: Cell cycle analysis (propidium iodide, Apo-Direct kit, flow cytometry); conditions: for concentration from which the increase of cells in G2/M phase was evident: MCF7, 24 h; for effect on cell cycle distribution: MCF7, increasing concentrations 24 h or time-course; for time of significant decrease in the G0/G1 phase / treatment time after which an increase in G2/M phase was found: MCF7, time-course, 15 μM compound 5 or 30 μM compound 15
# Description: Cell cycle arrest is the target of many anticancer drugs, as it is the first step to decrease cell proliferation. To gain a better understanding of the mechanism of these compounds, the effect of compounds 5 and 15 on cell cycle distribution was analyzed. MCF7 cells were treated with increasing concentrations of both compounds for 24 h or with 15 μM 5 or 30 μM 15 for different times. The negative control was treated with vehicle, and camptothecin (6 μM) was used as a positive control. Samples were stained with propidium iodide using the Apo-Direct kit (BD Pharmingen, Madrid, Spain) and processed by flow cytometry.
# 3 × 10^6 or 2 × 10^6 MCF7 cells were seeded in 25 cm^2 flasks for treatments up to 24 h or 48 h, respectively. DMSO (vehicle) or the dissolved compounds were added 24 h after seeding and cells were incubated for different times at 37 °C under 5% CO2. Cell cycle and cell death were analyzed simultaneously with the Apo-Direct kit (BD Pharmingen, Madrid, Spain), following the manufacturer’s protocol. Briefly, cells were fixed in 1% paraformaldehyde for 45 min at 0 °C, washed with PBS and incubated for at least 30 min in 70% ethanol on ice. Cells were then stained both with FITC-dUTP (1 h, 37 °C) and propidium iodide (30 min, room temperature) and analyzed by flow cytometry using a Coulter Epics XL cytometer (Beckman Coulter, Brea, CA, USA).
# Figure 4 Compounds 5 and 15 induce cell cycle arrest in G2/M phase in MCF7. MCF7 cells were treated with different concentrations of compound 5, 15 or vehicle (control) for 24 h or for different time periods. Cells were stained with propidium iodide with the Apo-Direct kit and analyzed by flow cytometry. (A) Quantification of cell cycle distribution after 24 h treatment with increasing concentrations of compound 5; (B) Representative experiment of A; (C) Quantification of cell cycle distribution after 24 h treatment with increasing concentrations of compound 15; (D) Representative experiment of C; (E) Cell cycle distribution after treatment with vehicle, 15 μM of compound 5 or 30 μM of compound 15 for different times. Results represent the mean ± SEM of at least three independent experiments performed in duplicate. * p < 0.05, ** p < 0.01.
# MCF7 cells [2] = experiment: Caspase and autophagy inhibitors assay (Z-VAD-FMK, wortmannin; TUNEL); conditions: MCF7, 50 μM Z-VAD-FMK 1 h pre-incubation, compound 5 25 μM or compound 15 30 μM, 48 h
# Description: Se compounds induce different types of cell death, among which apoptosis and autophagy are the most common. To further elucidate the pathway through which compounds 5 and 15 trigger cell death, we used Z-VAD-FMK, a pan-caspase inhibitor and wortmannin, a PI3K inhibitor which blocks autophagy. MCF7 cells were pre-incubated for 1 h with 50 μM of Z-VAD-FMK or 100 nM wortmannin and co-incubated with compound 5 (25 μM), compound 15 (30 μM) or vehicle (control) for 48 h. Treated cells without inhibitors were also included.
# 2 × 10^6 MCF7 cells were seeded in 25 cm^2 flasks. After 24 h, cells were pre-treated with 50 μM of the pan-caspase inhibitor Z-VAD-FMK (BD Pharmingen) or 100 nM wortmannin (Santa Cruz Biotechnology, Heidelberg, Germany) for 1 h before co-incubating them with 25 μM of compound 5, 30 μM of compound 15 or vehicle (maximum amount of DMSO used in the treatments) for 48 h. Cells were collected and processed with the Apo-Direct kit as described previously.
# Figure 6 Cell death induced by compounds 5 and 15 involves the caspases pathway. MCF7 cells were pre-incubated with 50 μM of Z-VAD-FMK or 100 nM wortmannin for 1 h before treating cells with compound 5 (25 μM), compound 15 (30 μM) or vehicle (control) for 48 h. Cells were stained with the Apo-Direct kit (TUNEL assay) and analyzed by flow cytometry. […]
# [3] = system: BEAS-2B (non-malignant bronchial epithelial); experiment: MTT viability assay, BEAS-2B; conditions: BEAS-2B non-malignant, 72 h, MTT; for CC50: read-out: LC50 (the source's name)
# Outline: (§1)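 Cells (10,000/well; RPMI or, for BEAS-2B, DMEM with 10% FBS; 37 °C, 5% CO2) were treated 72 h with six concentrations from 0.1 to 100 μM, diluted from 0.01 M DMSO stock. MTT was added for 4 h, formazan dissolved in DMSO, absorbance read at 550 nm; GI50, TGI and LC50 derived.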
# [4] = system: MCF7 (mammary adenocarcinoma); experiment: MTT viability assay, MCF7; conditions: MCF7, 72 h, MTT; for CC50: read-out: LC50 (the source's name)
# Outline: as §1
Substance,concentration from which the increase of cells in G2/M phase was evident (MCF7 cells [1]) [µM],effect on cell cycle distribution (MCF7 cells [1]),time of significant decrease in the G0/G1 phase (MCF7 cells [1]) [h],treatment time after which an increase in G2/M phase was found (MCF7 cells [1]) [h],decrease of cell death in the presence of the pan-caspase inhibitor Z-VAD-FMK (MCF7 cells [2]) [%],GI50 [3] [µM],TGI [3] [µM],CC50 [3] [µM],GI50 [4] [µM],TGI [4] [µM],CC50 [4] [µM]
"Dimethyl 2,5-furandicarboselenoate [Compound 15]",≥ 7,increased the percentage of cells in G2/M phase,16,8,14,2.6 ± 0.8,5.6 ± 0.9,8.6 ± 1.2,1.8 ± 0.9,7.2 ± 1.9,57 ± 4
Methyl 3-chlorothiophen-2-carboselenoate [Compound 5],≥ 15,increased the percentage of cells in G2/M phase,8,8,36,2.7 ± 0.5,5.3 ± 0.7,8 ± 1,3.1 ± 0.9,6.9 ± 1.1,35.9 ± 4.4
